We go through 2 molecules from patent US20260226493A1, “HERBICIDE RESISTANT PLANTS” (SYNGENTA CROP PROTECTION AG, priority 2023, published 2026).

Molecules are shown by their SMILES. Where “and” joins values, the source holds several entries; their conditions need not be identical. Equal entries are not always repeated.

The test system of assay [1] is D4596 (Arabidopsis thaliana BIO3-BIO1 F348C) containing tobacco plants. As to the kind of experiment: Visual herbicide damage score on transgenic tobacco D4596 (pCMP AtBioDA F348C). The assay is classed as in vivo. The following applies: 600 gai/ha; 7 DAT; each table row is one D4596 transgenic plant. An excerpt:
Populations of transgenic tobacco comprising 20-30 transgenic events per plant transformation constructs were generated as described in Example 1. These lines were clonally propagated and 1 clone per event was sprayed with 600 g ai/ha compound L or A+0.2% Genapol X080 with a spray volume of 200 L/Ha (“g ai/ha” refers to grams of active compound per hectare).
Herbicidal damage was visually assessed across the population and a herbicide damage score given at 7, 14 and 21 days. A score of 0 indicates no visible damage or stunting whereas a score of 100 indicates a complete death of the plant. 20 transgenic events (i.e. individual transgenic plants) from each GM tobacco line were transplanted to soil 1 week prior to spraying with BIO3-BIO1inhibiting compounds. WT tobacco was included as a control.
To determine if overexpression of variants detailed in Example 7 confer resistance to BIO3-BIO1 inhibiting compounds when expressed in plants, GM tobacco lines were produced using the methods in Example 1 and tested with BIO3-BIO1 inhibiting compounds.
Transgenic tobacco plants expressing the Arabidopsis thaliana BIO3-BIO1 variants C388D (SEQ ID NO:26), P421L(SEQ ID NO:41), F348C (SEQ ID NO:28), G700S (SEQ ID NO:39), W392S (SEQ ID NO:70) and the Zea mays BIO3-BIO1 variant C372D (SEQ ID NO:324). Populations of transgenic tobacco were sprayed and assessed as in Example 2

The test system of assay [2] is Cryptosporidium andersoni BioA. The experiment in a line: BioA enzyme activity with DMSO or herbicide in vitro. The settings on record: 0.5 μM, spermidine in substrate mix. Format: biochemical.

Turning to `CCOC(=O)c1nn(-c2ccc3c(c2)OC(F)(F)C(F)(F)O3)c2cccc(C(C)=O)c2c1=O` [Compound A, ethyl 5-acetyl-4-oxo-1-(2,2,3,3-tetrafluoro-1,4-benzodioxin-6-yl)cinnoline-3-carboxylate], the percentage of damage in assay [1] was 0% and 3%.
For the molecule `CCn1c(Cn2ccc(C(F)(F)F)n2)cc(=O)c(C(=O)O)c1-c1ccc(Cl)c(Cl)c1` [Compound L, 2-(3,4-dichlorophenyl)-1-ethyl-4-oxo-6-[[3-(trifluoromethyl)pyrazol-1-yl]methyl]pyridine-3-carboxylic acid], the “% Inhibition relative to DMSO treatment” value in assay [2] is 0%.
